Like-named read-outs stand apart in the source and are kept apart here.
Tests used:
[1] = Physical stability of Compound 1-dihydrochloride at four temperature/RH conditions; format: physicochemical; conditions: four temperature/RH conditions, 4 weeks
Experimental: A physical stability study of Compound 1-dihydrochloride (mixture of Form 1 and Form 2) was conducted. A solid sample of Compound 1-dihydrochloride was incubated under four relative humidity and temperature conditions: 5° C./ambient RH, 25° C./60% RH, 30° C./65% RH and 40° C./75% RH. At regular intervals, the compound was analyzed by HR-XRPD and TGMS. […] The water content is in line with the monohydrate nature of Compound 1-dihydrochloride Form 1. The TGMS analyses recorded for the 2 weeks and 1-month incubation is also along the 3.8% of water (1 molecule of water per molecule of API).

[2] = Aqueous solubility as a function of pH (phosphate buffers, HPLC-UV); format: physicochemical; conditions: aqueous buffer, thermodynamic from solid; for solubility at 4 h: read-out: Conc. (mg/ml) 4 hours; for solubility thermodynamic at 24 h: read-out: Conc. (mg/ml) 24 hours
Experimental: A known amount of Compound 1 was weighed directly into 5 ml vials and 1 ml of each phosphate buffer was added; the solutions obtained were kept at controlled temperature (25° C.) and magnetically stirred up to 24 hours. Aliquots of obtained suspensions or solutions were centrifuged (14000 rpm 10 minutes) and withdrawn at two predefined time points (4 hours and 24 hours) appropriately diluted and analyzed by HPLC-UV using the analytical method parameters summarized in the Table 9.

[3] = Dynamic vapor sorption analysis; format: physicochemical; conditions: 25° C.
Experimental: Differences in hygroscopicity (moisture uptake) of the various forms of a solid material provided a measure of their relative stability at increasing relative humidity. Moisture sorption isotherms of small samples were obtained using a DVS-1 system from Surface Measurement Systems (London, UK); this instrument is suitable for use with as little as a few milligrams of sample, with an accuracy of 0.1 μg. The following humidity profile was applied: The relative humidity was cycled from 45% to 95% (sorption), back to 0% (desorption) and to 45%, at a constant temperature of 25° C. […] Weight equilibration per step was set with a minimum holding time of 1 hour. At the end of the DVS experiments, the recovered solid material was measured by HT-XRPD. Compound 1-dihydrochloride monohydrate was analyzed by dynamic vapor sorption (FIG. 6). The material was subjected to an isothermal desorption/sorption profile starting at 45%-95%-0%-45% relative humidity levels (step 5% at low relative humidity (RH)) at 25° C. The temperature was maintained constant at approximately 25° C. for the duration of the experiment. […] It can be seen that the mass uptake is rather small and that at high humidity level Compound 1-dihydrochloride remained as Form 1. This is confirmed by the mass stability and the VH-XRPD experiment conducted (see FIG. 7). […]

DSC analysis of Form 1 = format: physicochemical; conditions: DSC trace
Experimental: Melting properties were obtained from DSC thermograms, recorded with a heat flux DSC822e instrument (Mettler-Toledo GmbH, Switzerland). The DSC822e was calibrated for temperature and enthalpy with a small piece of indium (melting point at 156.6 C; ΔHf=28.45 J·g−1). Samples were sealed in standard 40 μl aluminum pans, pin-holed and heated in the DSC from 25° C. to 300° C., at a heating rate of 10° C. min-1. Dry N2 gas, at a flow rate of 50 ml min−1 was used to purge the DSC equipment during measurement.
This event corresponds to the onset of dehydration of the monohydrate. This dehydration process is followed by the decomposition of the compound at about 290° C. signaled by a large endothermic event. It is concluded from this experiment that Form 1 is stable to elevated temperature, up to approximately 50° C.

[4] = Stability of aqueous solutions of combination formulation at pH 5.0; format: physicochemical; conditions: pH 5.0 at 25° C., 24 hours
[5] = Human pharmacokinetic and PK/PD target attainment estimates; format: in vivo
Excerpt: (§1) The results from in vitro and in vivo nonclinical PK/PD studies, the human PK data collected in the Phase 1 Study, and human plasma binding data were used to determine human therapeutic doses required for PK/PD target attainment.

[6] = Polymorph and hydrate screen: physical stability of solid forms (AAC, drying); format: physicochemical; conditions: 40° C. and 75% RH for 2 days
Experimental: The solids obtained from the various crystallization experiments were analyzed by High Throughput XRPD (HT-XRPD). If relevant, the mother liquors were allowed to evaporate completely, and the remaining solids were analyzed by HT-XRPD. Subsequently, all solids were exposed to accelerated aging conditions for 48 hours at 40° C. and 75% RH (AAC).
From the polymorph screen, four novel diffractograms were identified in addition to the two known forms of Compound 1-dihydrochloride, Form 1 and Form 2. Form 1 was the most abundant solid form found in this polymorph screen. The novel diffractograms were designated Forms 3, 4, 5 and 6. All these forms were found with low frequency and were poorly crystalline. […] The HT-XRPD patterns of the new Forms 3, 4, 5 and 6 are shown in FIG. 12, FIG. 13, FIG. 14, and FIG. 15, respectively.
After completion of the equilibration time, the remaining solids were analyzed by HT-XRPD dry under ambient conditions and dried under vacuum. The mother liquors were analyzed by Karl Fisher titration for water content determination. […] The solutions from these experiments were evaporated under vacuum (200 mBar) and the obtained dried solids analyzed by HT-XRPD. All the solids were then exposed to 40° C. and 75% RH for two days.

human serum protein = assay: In vitro human serum protein binding; format: in vitro ADME
Excerpt: as §1

[7] = In vitro human serum protein binding; format: in vitro ADME; conditions: human
Excerpt: as §1

[8] = Variable humidity XRPD analysis; format: physicochemical; conditions: VH-XRPD, sorption; dihydrochloride
Experimental: To confirm the hypothesis of a solid form change between 40% and 0% relative humidity levels a variable humidity XRPD (VH-XRPD) analysis was performed. The sample was subjected to a humidity profile of 45-75-20-15-10-30-35-45% relative humidity levels at 30° C. At each step, two diffractograms were recorded. The first diffractogram was recorded when the target humidity was reached and the second after the sample had equilibrated for 1 hour at each humidity level. […] The most intense peaks of Form 1 (dihydrochloride monohydrate) are in the range between 9.5 and 24.5° 2θ.
The measured RH level and the kind of ongoing RH variation step (sorption or desorption) is found on the right hand side. […] Upon desorption, the material was converted between 20% and 15% relative humidity to Form 2, the anhydrous form. Upon sorption, Form 2 converted back to Form 1 between 30% and 35% relative humidity.

## Cl.Cl.NCCN[C@H]1CC[C@H](CC(=O)N[C@H]2Cc3cccc(C(=O)O)c3OB2O)CC1 [Form 1, (R)-3-(2-(trans-4-(2-aminoethylamino)cyclohexyl)acetamido)-2-hydroxy-3,4-dihydro-2H-benzo[e][1,2]oxaborinine-8-carboxylic acid dihydrochloride]
[1]
  Physical stability and hygroscopicity under the tested conditions: physically stable and non-hygroscopic
[2]; Phosphate Buffer pH 4, pH (4 h) 3.9, 25° C.
  solubility at 4 h: > 143 mg/mL
[2]; Phosphate Buffer pH 4, pH (24 h) 3.9, 25° C.
  solubility thermodynamic at 24 h: 133 mg/mL
[2]; Phosphate Buffer pH 5, pH (4 h) 4.9, 25° C.
  solubility at 4 h: > 135 mg/mL
[2]; Phosphate Buffer pH 5, pH (24 h) 4.9, 25° C.
  solubility thermodynamic at 24 h: 107 mg/mL
[2]; Phosphate Buffer pH 6, pH (4 h) 6.2, 25° C.
  solubility at 4 h: > 135 mg/mL
[2]; Phosphate Buffer pH 6, pH (24 h) 6.2, 25° C.
  solubility thermodynamic at 24 h: 102 mg/mL
[2]; Phosphate Buffer pH 7, pH (4 h) 7.1, 25° C.
  solubility at 4 h: > 133 mg/mL
[2]; Phosphate Buffer pH 7, pH (24 h) 7.0, 25° C.
  solubility thermodynamic at 24 h: 87.8 mg/mL
[2]; Phosphate Buffer pH 8, pH (4 h) 8.1, 25° C.
  solubility at 4 h: > 127 mg/mL
[2]; Phosphate Buffer pH 8, pH (24 h) 8.1, 25° C.
  solubility thermodynamic at 24 h: 68.3 mg/mL
[2]; Phosphate Buffer pH 9, pH (4 h) 8.7, 25° C.
  solubility at 4 h: > 109 mg/mL
[2]; Phosphate Buffer pH 9, pH (24 h) 8.9, 25° C.
  solubility thermodynamic at 24 h: 61.4 mg/mL
[3]; DVS sorption 45% RH to 95%
  Mass uptake on exposure to increasing relative humidity: rather small
[3]; DVS, exposure to 10, 5, and 0% RH, transformation to Form 2
  Mass loss on desorption: approximately 4%
DSC analysis of Form 1
  Temperature up to which the form is stable (onset of dehydration): approximately 50 °C

## NCCN[C@H]1CC[C@H](CC(=O)N[C@H]2Cc3cccc(C(=O)O)c3OB2O)CC1 [Compound 1, (R)-3-(2-(trans-4-(2-aminoethylamino)cyclohexyl)acetamido)-2-hydroxy-3,4-dihydro-2H-benzo[e][1,2]oxaborinine-8-carboxylic acid]
[4]
  % present, Compound 1: 100%
[5]; Dose Level 250 (q8 hr)
  Total AUC0-24: 123 µg·h/mL
  fAUC0-24: 77 µg·h/mL
[5]; Dose Level 500 (q8 hr)
  Total AUC0-24: 248 µg·h/mL
  fAUC0-24: 156 µg·h/mL
[6]
  Physical stability upon exposure to AAC: Stable
Human serum protein
  free fraction: 63%
[7]
  fraction unbound: 0.63

## Cl.Cl.NCCN[C@H]1CC[C@H](CC(=O)N[C@H]2Cc3cccc(C(=O)O)c3OB2O)CC1 [Form 2, (R)-3-(2-(trans-4-(2-aminoethylamino)cyclohexyl)acetamido)-2-hydroxy-3,4-dihydro-2H-benzo[e][1,2]oxaborinine-8-carboxylic acid dihydrochloride]
[8]
  Relative humidity at which Form 2 converts to Form 1: 25-35 % RH

Source: US12187752B2, “Solid forms and combination compositions comprising a beta-lactamase inhibitor and uses thereof” (priority 2017, dated 2025)
